The values that follow come from patent US20100173914A1, “PHARMACEUTICALS, COMPOSITIONS AND METHODS OF MAKING AND USING THE SAME” (priority 2007, published 2010).

The target in data set [1] is T1, human adenosine A1 receptors (Homo sapiens, UniProt P30542).
T1 construct: expressed in transfected cells; host or cells: CHO-K1
T1 sequence (P30542 1-326): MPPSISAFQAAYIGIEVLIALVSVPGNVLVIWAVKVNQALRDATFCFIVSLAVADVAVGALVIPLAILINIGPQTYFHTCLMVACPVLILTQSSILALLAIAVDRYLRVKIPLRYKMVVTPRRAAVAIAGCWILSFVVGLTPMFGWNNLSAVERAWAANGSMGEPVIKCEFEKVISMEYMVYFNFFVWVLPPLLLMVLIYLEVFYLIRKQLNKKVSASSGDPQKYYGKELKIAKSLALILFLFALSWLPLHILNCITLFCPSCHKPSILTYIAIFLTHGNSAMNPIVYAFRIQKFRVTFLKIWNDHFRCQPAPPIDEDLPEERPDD
As to the kind of experiment: Adenosine receptor binding: binding affinities at hA1 receptors ([3H]DPCPX displacement). The note with it: displacement of [3H]DPCPX, membranes of CHO-K1 cells transfected with human A1. The source says: Adenosine Receptor Binding: Binding Affinities at hA1 Receptors
The compounds were examined in an assay measuring in vitro binding to human adenosine A1 receptors by determining the displacement of the adenosine A1 receptor selective radioligand 8-Cyclopentyl-1,3-dipropylxanthine ([^3H]DPCPX) using standard techniques. See, for example, Lohse M J, et al., (1987), 8-Cyclopentyl-1,3-dipropylxanthine (DPCPX)—a selective high affinity antagonist radioligand for A1 adenosine receptors. Naunyn Schmiedebergs Arch Pharmacol., 336(2):204-10, which is incorporated by reference in its entirety.
Frozen CHO-K1 cells (transfected with a human adenosine A1 recepter expression vector) were homogenized in 130 mL of 50 mM Tris HCl buffer (pH 7.5) containing 10 mM MgCl2, and 0.1 IU/mL adenosine deaminase per pellet using a Ultra-Turrax homogeniser. The resultant homogenate was kept for immediate use in the binding. Binding assays were performed in a total volume of 250 μL, containing [^3H]-DPCPX (3.0 nM), membranes and additional drugs. Total binding was determined using drug dilution buffer (50 mM Tris-HCl pH:7.5, 10 mM MgCl2, 5% DMSO). Non-specific binding was determined using 300 μM N6-cyclohexyladenosine (CHA). Following incubation for 90 minutes at 21° C., assays were terminated by rapid filtration with GF/B filters (presoaked in 0.1% (w/v) polyethylenimine) using a Canberra Packard filtermate 196, washed 3 times with ice-cold Tris-HCl (pH 7.4). Filters were left to dry overnight, and Microscint-0 scintillation fluid was then added to the filters. The filters were then left for at least 2 hours before the radioactivity was assessed using a Canberra Packard TopCount microplate scintillation counter.
To determine the free ligand concentration, three vials were counted with 25 μL of [^3H]DPCPX containing 4 mL of Ultima-Gold MV scintillant on a Beckman LS6500 multi-purpose scintillation counter.
(§1) Data was analysed using a 4 parameter logistical equation and non-linear regression which yields affinity constants (pIC50), and slope parameters:
where E is the quantity of binding and [A] is the competitor concentration. The K, is then determined using the Cheng-Prusoff equation: […]
On the technique in general: Displacement assays read how much labelled ligand stays bound in the presence of the test substance.

For data set [2], the target named is T2, human adenosine A2A receptors (Homo sapiens, UniProt P29274).
T2 construct: host or cells: HEK-293
As to the kind of experiment: Adenosine receptor binding: binding affinities at hA2A receptors ([3H]CGS-21680 displacement). Conditions: for Ki: displacement of [3H]CGS-21680, HEK-293 cell membranes; for A2A/A1 selectivity ratio (Ki A2A/Ki A1): ratio of measured Ki values at hA2A and hA1.
From the text: Adenosine Receptor Binding: Binding Affinities at hA2A Receptors
The compounds were examined in an assay measuring in vitro binding to human adenosine A2A receptors by determining the displacement of the adenosine A2A receptor selective radioligand 4-[2-[[6-Amino-9-(N-ethyl-β-D-ribofuranuronamidosyl)-9H-purin-2-yl]amino]ethyl]benzenepropanoic acid hydrochloride ([^3H]CGS-21680) using standard techniques. See, for example, Jarvis et al., J Pharmacol Exp Ther., 251(3):888-93, which is incorporated by reference in its entirety.
Frozen HEK-293 cells were homogenized in 65 mL of 50 mM Tris HCl buffer (pH 7.5) containing 10 mM MgCl2, and 0.1 IU/mL adenosine deaminase per pellet using a Ultra-Turrax homogenizer. The resultant homogenate was kept for immediate use in the binding assay.
Binding assays were performed in a total volume of 250 μL, containing [^3H]-CGS21680 (20.0 nM), membranes and additional drugs. Total binding was determined using drug dilution buffer (50 mM Tris-HCl pH 7.5, 10 mM MgCl2, 5% DMSO). Non-specific binding was determined using 300 μM CHA. Following incubation for 90 minutes at 21° C., assays were terminated by rapid filtration with GF/B filters (presoaked in 0.1% (w/v) polyethylenimine) using a Canberra Packard filtermate 196, washed 3 times with ice-cold Tris-HCl (pH 7.4). Filters were left to dry overnight, and Microscint-0 scintillation fluid was then added to the filters. The filters were then left for at least 2 hours before the radioactivity was assessed using a Canberra Packard TopCount microplate scintillation counter.
To determine the free ligand concentration, three vials were counted with 25 μL of [^3H]CGS21680 containing 4 mL of Ultima-Gold MV scintillant on a Beckman LS6500 multi-purpose scintillation counter.
as §1
where E is the quantity of binding and [A] is the competitor concentration. The Ki is then determined using the Cheng-Prusoff equation: […]

For data set [3] the following is noted: cited from earlier work.
The conditions of data set [4]: cited from earlier work. This is another data set of the same source.

T2 sequence (P29274 whole entry): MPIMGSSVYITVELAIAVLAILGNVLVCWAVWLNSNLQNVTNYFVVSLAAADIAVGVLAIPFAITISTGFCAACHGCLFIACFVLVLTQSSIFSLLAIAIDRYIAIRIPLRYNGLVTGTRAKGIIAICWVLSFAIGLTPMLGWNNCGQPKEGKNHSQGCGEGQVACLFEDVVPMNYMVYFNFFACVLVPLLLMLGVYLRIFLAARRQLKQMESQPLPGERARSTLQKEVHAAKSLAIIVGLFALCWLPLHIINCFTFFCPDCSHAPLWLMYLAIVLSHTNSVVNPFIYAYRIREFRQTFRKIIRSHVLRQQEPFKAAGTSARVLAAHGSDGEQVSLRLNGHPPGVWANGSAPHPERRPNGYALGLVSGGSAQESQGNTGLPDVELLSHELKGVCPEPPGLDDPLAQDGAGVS

As to `COc1cc(Cn2nnc3c(-c4cccs4)nc(N)nc32)ccc1NS(=O)(=O)O` [4-[(5-amino-7-(thiophen-2-yl)-3H-[1,2,3]triazolo[4,5-d]pyrimidin-3-yl)methyl]-2-methoxyphenylsulfamic acid], the Ki – broadly, a measure of affinity in units of concentration, obtained from inhibition or displacement – in data set [1] is 1 to 10 µM; in data set [2], 0.1 to 1 µM. In data set [2], the “A2A/A1 selectivity ratio (Ki A2A/Ki A1)” value is reported as “H (more than 20)”.
The like results for `Cc1cc(Cn2nnc3c(-c4cccs4)nc(N)nc32)ccc1NS(=O)(=O)O` [4-[(5-amino-7-(thiophen-2-yl)-3H-[1,2,3]triazolo[4,5-d]pyrimidin-3-yl)methyl]-2-methylphenylsulfamic acid] were, in that order, 0.1 to 1 µM, at most 0.1 µM and “H (more than 20)”.
Consider `COc1cc(NS(=O)(=O)O)ccc1Cn1nnc2c(-c3cccs3)nc(N)nc21` [4-[(5-amino-7-(thiophen-2-yl)-3H-[1,2,3]triazolo[4,5-d]pyrimidin-3-yl)methyl]-3-methoxyphenylsulfamic acid], for which the inhibition constant Ki in data set [1] is over 10 µM. In data set [2], the Ki fell in the range of 1 to 10 µM and the “A2A/A1 selectivity ratio (Ki A2A/Ki A1)” value is “F (5 to 10)”.
In the same order, the values of `Nc1nc(-c2cccs2)c2nnn(Cc3ccc(NS(=O)(=O)O)cc3)c2n1` [4-[(5-amino-7-(thiophen-2-yl)-3H-[1,2,3]triazolo[4,5-d]pyrimidin-3-yl)methyl]phenylsulfamic acid] are 1 to 10 µM, 0.1 to 1 µM and “G (10 to 20)”.
The like results for `COc1cc(Cn2nnc3c(-c4ccccc4)nc(N)nc32)ccc1NS(=O)(=O)O` [4-[(5-amino-7-phenyl-3H-[1,2,3]triazolo[4,5-d]pyrimidin-3-yl)methyl]-2-methoxyphenylsulfamic acid] were, in that order, 1 to 10 µM, 0.1 to 1 µM and “G (10 to 20)”.
Regarding `Cc1cc(Cn2nnc3c(-c4ccccc4)nc(N)nc32)ccc1NS(=O)(=O)O` [4-[(5-amino-7-phenyl-3H-[1,2,3]triazolo[4,5-d]pyrimidin-3-yl)methyl]-2-methylphenylsulfamic acid], the Ki in data set [1] is 0.1 to 1 µM. Besides, in data set [2], the inhibition constant Ki was at most 0.1 µM and the “A2A/A1 selectivity ratio (Ki A2A/Ki A1)” value is recorded as “H (more than 20)”.
For `COc1cc(NS(=O)(=O)O)ccc1Cn1nnc2c(-c3ccccc3)nc(N)nc21` [4-[(5-amino-7-phenyl-3H-[1,2,3]triazolo[4,5-d]pyrimidin-3-yl)methyl]-3-methoxyphenylsulfamic acid], the inhibitory constant (Ki) in data set [1] was over 10 µM. Further, in data set [2], the inhibition constant Ki lay in the range of 1 to 10 µM and the “A2A/A1 selectivity ratio (Ki A2A/Ki A1)” value is listed as “F (5 to 10)”.
`COc1ccccc1-c1nc(N)nc2c1nnn2Cc1ccc(C)c(NS(=O)(=O)O)c1` [5-[(5-amino-7-(2-methoxyphenyl)-3H-[1,2,3]triazolo[4,5-d]pyrimidin-3-yl)methyl]-2-methylphenylsulfamic acid]: the Ki in data set [1] and in data set [2] was 1 to 10 µM each time. For the same compound, the “A2A/A1 selectivity ratio (Ki A2A/Ki A1)” value in data set [2] is “E (less than 5)”.
As for `Cc1ccc(-c2nc(N)nc3c2nnn3Cc2ccc(C)c(NS(=O)(=O)O)c2)o1` [5-[(5-amino-7-(5-methylfuran-2-yl)-3H-[1,2,3]triazolo[4,5-d]pyrimidin-3-yl)methyl]-2-methylphenylsulfamic acid], the inhibition constant (Ki) in data set [1] is 0.1 to 1 µM; in data set [2], at most 0.1 µM. In addition, the “A2A/A1 selectivity ratio (Ki A2A/Ki A1)” value in data set [2] was “H (more than 20)”.
Regarding `Cc1ccc(Cn2nnc3c(-c4ccco4)nc(N)nc32)cc1NS(=O)(=O)O` [5-[(5-amino-7-(furan-2-yl)-3H-[1,2,3]triazolo[4,5-d]pyrimidin-3-yl)methyl]-2-methylphenylsulfamic acid], the inhibitory constant (Ki) is 0.1 to 1 µM in data set [1] and at most 0.1 µM in data set [2]. Besides, in data set [2], the “A2A/A1 selectivity ratio (Ki A2A/Ki A1)” value is reported as “H (more than 20)”.
In turn, `Cc1ccc(Cn2nnc3c(-c4cccs4)nc(N)nc32)cc1NS(=O)(=O)O` [5-[(5-amino-7-(thiophen-2-yl)-3H-[1,2,3]triazolo[4,5-d]pyrimidin-3-yl)methyl]-2-methylphenylsulfamic acid] registered a Ki in data set [1] of 1 to 10 µM. Further, in data set [2], the Ki was at most 0.1 µM and the “A2A/A1 selectivity ratio (Ki A2A/Ki A1)” value was “H (more than 20)”.
`Cc1ccc(Cn2nnc3c(-c4ccccc4)nc(N)nc32)cc1NS(=O)(=O)O` [5-[(5-amino-7-phenyl-3H-[1,2,3,]triazolo[4,5-d]pyrimidin-3-yl)methyl]-2-methylphenylsulfamic acid]: in data set [1], the Ki lay within 0.1 to 1 µM. For the same compound, in data set [2], the Ki is at most 0.1 µM and the “A2A/A1 selectivity ratio (Ki A2A/Ki A1)” value was “G (10 to 20)”.
As to `CCCn1c(=O)c2c(nc(/C=C/c3ccc(OC)c(OC)c3)n2C)n(CCC)c1=O` [KF 17837, E-8-(3,4-dimethoxystyryl)-1,3-dipropyl-7-methylxanthine], in data set [3] (in vivo), the “anticataleptic effects of a subthreshold dose of L-DOPA plus benserazide” value is given as “potentiated”; the “catalepsy induced by haloperidol and reserpine” value is on record as “reduced”. In data set [3] (oral administration), the “cataleptic responses induced by intracerebroventricular CGS 21680” value is on record as “significantly ameliorated”.
As to `Cn1c(=O)c2[nH]cnc2n(C)c1=O` [Theophylline, 1,3-dimethylxanthine], the serum theophylline levels in data set [4] (150 mg/day slow release oral, after one week, Parkinsonian patients) was 4.44 mg/L. Also, in data set [4] (15 Parkinsonian patients, up to 12 weeks, 150 mg/day), the “mean objective disability scores” value is “significant improvements”. Also, in data set [4] (of 15 Parkinsonian patients, up to 12 weeks, 150 mg/day), the “patients reporting moderate or marked subjective improvement” value is reported as 11.
